Molecules are shown by their SMILES.

The results in this text go back to ChEMBL document CHEMBL1139718, “Design, total synthesis, and biological evaluation of neodysiherbaine A derivative as potential probes” (Bioorg Med Chem Lett, 2006).

One assay concerns Mus musculus. The assay can be described thus: Epileptogenic activity in mouse, icv. Type of assay: functional.
Assay [1] is described as follows: Displacement of [3H]AMPA from AMPA receptor in rat synaptic membrane. It is filed as cell membranes.
Assay [2] in a line: Displacement of [3H]kainic acid from Kainate receptor in rat synaptic membrane. It is filed as cell membranes.

With `N[C@@H](C[C@]1(C(=O)O)C[C@H]2OC[C@@H](O)[C@@H](O)[C@H]2O1)C(=O)O` [NEODYSIHERBAINE A], the ED50 in the assay on Mus musculus is given as 16 pmol. In addition, the Ki was determined as 151 nM in assay [1] and 52 nM in assay [2].
The corresponding values for `N[C@@H](C[C@]1(C(=O)O)C[C@H]2O[C@H](CO)[C@@H](O)[C@@H](O)[C@H]2O1)C(=O)O` [10-HYDROXY-METHYL-NEODYSIHERBAINE A] are 110 pmol, 153 nM and 790 nM.
For the compound `CN[C@H]1[C@H]2O[C@@](C[C@H](N)C(=O)O)(C(=O)O)C[C@H]2OC[C@H]1O` [DYSIHERBAINE], the ED50 in the assay with Mus musculus stood at 13 pmol. The Ki in assay [1] turned out to be 153 nM; in assay [2] it was 26 nM.
